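1) Cells in 96-well plates. 2) Compound, 48 h, 5 concentrations. 3) Linear interpolation between surrounding doses. 4) Unreached endpoint = highest concentration. GI50: concentration for 50% inhibition of growth. At the TGI there is no net growth.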
Tests used:
Assay in all cases: NCI-60 cell line screen, 48 h
SNB-75 CNS = system: SNB-75 CNS
NCI-H226 lung = system: NCI-H226 lung
MDA-MB-435 = system: MDA-MB-435
MALME-3M melanoma = system: MALME-3M melanoma
SR leukemia = system: SR leukemia
HCC-2998 colon = system: HCC-2998 colon
OVCAR-4 ovarian = system: OVCAR-4 ovarian
OVCAR-8 ovarian = system: OVCAR-8 ovarian
MCF7 breast = system: MCF7 breast
SK-MEL-28 melanoma = system: SK-MEL-28 melanoma
SNB-19 CNS = system: SNB-19 CNS
HOP-92 NSCLC = system: HOP-92 NSCLC
SK-MEL-5 melanoma = system: SK-MEL-5 melanoma
OVCAR-5 ovarian = system: OVCAR-5 ovarian
SK-OV-3 ovarian = system: SK-OV-3 ovarian
SN12C renal = system: SN12C renal
UACC-257 melanoma = system: UACC-257 melanoma
NCI-H460 lung = system: NCI-H460 lung
CAKI-1 renal = system: CAKI-1 renal
M14 melanoma = system: M14 melanoma
BT-549 breast = system: BT-549 breast
UO-31 renal = system: UO-31 renal
COLO 205 colon = system: COLO 205 colon
MDA-MB-231 breast = system: MDA-MB-231 breast
SF-268 CNS = system: SF-268 CNS
HOP-62 NSCLC = system: HOP-62 NSCLC
CCRF-CEM leukemia = system: CCRF-CEM leukemia
LOX IMVI melanoma = system: LOX IMVI melanoma
T-47D breast = system: T-47D breast
ACHN renal = system: ACHN renal
TK-10 renal = system: TK-10 renal
HCT-116 colon = system: HCT-116 colon
HCT-15 colon = system: HCT-15 colon
NCI-H23 lung = system: NCI-H23 lung
EKVX NSCLC = system: EKVX NSCLC
PC-3 prostate = system: PC-3 prostate
786-0 renal = system: 786-0 renal
DU-145 prostate = system: DU-145 prostate
A549 NSCLC = system: A549 NSCLC
K-562 leukemia = system: K-562 leukemia
HL-60(TB) leukemia = system: HL-60(TB) leukemia
U251 CNS = system: U251 CNS
SK-MEL-2 melanoma = system: SK-MEL-2 melanoma
KM12 colon = system: KM12 colon
HS 578T breast = system: HS 578T breast
UACC-62 melanoma = system: UACC-62 melanoma
RPMI-8226 leukemia = system: RPMI-8226 leukemia
SF-539 CNS = system: SF-539 CNS
HT29 colon = system: HT29 colon
A498 renal = system: A498 renal
MOLT-4 leukemia = system: MOLT-4 leukemia
IGROV1 ovarian = system: IGROV1 ovarian
NCI-H522 lung = system: NCI-H522 lung
OVCAR-3 ovarian = system: OVCAR-3 ovarian
SW-620 colon = system: SW-620 colon
NCI/ADR-RES ovarian = system: NCI/ADR-RES ovarian
SF-295 CNS = system: SF-295 CNS

CC(Nc1c(C#N)cnc2ccc(-c3cncc(-c4n[nH]c(=O)o4)c3)cc12)c1ccccc1 (centres undefined)
GI50 (SNB-75 CNS): 2.15 µM | TGI (SNB-75 CNS): 7.76 µM | GI50 (NCI-H226 lung): 2.56 µM | TGI (NCI-H226 lung): 13.8 µM | GI50 (MDA-MB-435): 3.59 µM | TGI (MDA-MB-435): 29.5 µM | GI50 (MALME-3M melanoma): 2.17 µM | TGI (MALME-3M melanoma): 9.36 µM | GI50 (SR leukemia): 2.79 µM | TGI (SR leukemia): 46.8 µM | GI50 (HCC-2998 colon): 3.48 µM | TGI (HCC-2998 colon): 14.1 µM | GI50 (OVCAR-4 ovarian): 2.84 µM | TGI (OVCAR-4 ovarian): 24.3 µM | GI50 (OVCAR-8 ovarian): 3.63 µM | TGI (OVCAR-8 ovarian): 32.9 µM | GI50 (MCF7 breast): 2.64 µM | TGI (MCF7 breast): 15.8 µM | GI50 (SK-MEL-28 melanoma): 3.4 µM | TGI (SK-MEL-28 melanoma): 14.7 µM | GI50 (SNB-19 CNS): 2.77 µM | TGI (SNB-19 CNS): 14.6 µM | GI50 (HOP-92 NSCLC): 2 µM | TGI (HOP-92 NSCLC): 7.27 µM | GI50 (SK-MEL-5 melanoma): 1.68 µM | TGI (SK-MEL-5 melanoma): 3.07 µM | GI50 (OVCAR-5 ovarian): 3.6 µM | TGI (OVCAR-5 ovarian): 22.9 µM | GI50 (SK-OV-3 ovarian): 4.51 µM | TGI (SK-OV-3 ovarian): 28.3 µM | GI50 (SN12C renal): 2.73 µM | TGI (SN12C renal): 13.7 µM | GI50 (UACC-257 melanoma): 4.48 µM | TGI (UACC-257 melanoma): 22.5 µM | GI50 (NCI-H460 lung): 3.2 µM | TGI (NCI-H460 lung): 14.9 µM | GI50 (CAKI-1 renal): 3.69 µM | TGI (CAKI-1 renal): 34.5 µM | GI50 (M14 melanoma): 3.87 µM | TGI (M14 melanoma): 33.4 µM | GI50 (BT-549 breast): 1.35 µM | TGI (BT-549 breast): 5.48 µM | GI50 (UO-31 renal): 1.77 µM | TGI (UO-31 renal): 8.79 µM | GI50 (COLO 205 colon): 2.85 µM | TGI (COLO 205 colon): 14.8 µM | GI50 (MDA-MB-231 breast): 2.15 µM | TGI (MDA-MB-231 breast): 9.65 µM | GI50 (SF-268 CNS): 2.62 µM | TGI (SF-268 CNS): 9.88 µM | GI50 (HOP-62 NSCLC): 3.51 µM | TGI (HOP-62 NSCLC): 24.7 µM | GI50 (CCRF-CEM leukemia): 3.7 µM | TGI (CCRF-CEM leukemia): > 100 µM | GI50 (LOX IMVI melanoma): 1.94 µM | TGI (LOX IMVI melanoma): 8.44 µM | GI50 (T-47D breast): 2.36 µM | TGI (T-47D breast): > 100 µM | GI50 (ACHN renal): 3.57 µM | TGI (ACHN renal): 13.3 µM | GI50 (TK-10 renal): 3.83 µM | TGI (TK-10 renal): 44.6 µM | GI50 (HCT-116 colon): 2.65 µM | TGI (HCT-116 colon): 8.75 µM | GI50 (HCT-15 colon): 3.06 µM | TGI (HCT-15 colon): 13.2 µM | GI50 (NCI-H23 lung): 3.12 µM | TGI (NCI-H23 lung): 14.5 µM | GI50 (EKVX NSCLC): 2.46 µM | TGI (EKVX NSCLC): 8.59 µM | GI50 (PC-3 prostate): 3.25 µM | TGI (PC-3 prostate): > 100 µM | GI50 (786-0 renal): 2.44 µM | TGI (786-0 renal): 24.2 µM | GI50 (DU-145 prostate): 2.98 µM | TGI (DU-145 prostate): 15.6 µM | GI50 (A549 NSCLC): 3.64 µM | TGI (A549 NSCLC): 29.2 µM | GI50 (K-562 leukemia): 4.42 µM | TGI (K-562 leukemia): > 100 µM | GI50 (HL-60(TB) leukemia): 8.19 µM | TGI (HL-60(TB) leukemia): 72.5 µM | GI50 (U251 CNS): 2.36 µM | TGI (U251 CNS): 14.4 µM | GI50 (SK-MEL-2 melanoma): 2.24 µM | TGI (SK-MEL-2 melanoma): 6.66 µM | GI50 (KM12 colon): 3.65 µM | TGI (KM12 colon): 17.2 µM | GI50 (HS 578T breast): 1.9 µM | TGI (HS 578T breast): 5.47 µM | GI50 (UACC-62 melanoma): 1.96 µM | TGI (UACC-62 melanoma): 4.87 µM | GI50 (RPMI-8226 leukemia): 2.52 µM | TGI (RPMI-8226 leukemia): > 100 µM | GI50 (SF-539 CNS): 2.53 µM | TGI (SF-539 CNS): 10.3 µM | GI50 (HT29 colon): 3.66 µM | TGI (HT29 colon): 31.1 µM | GI50 (A498 renal): 1.77 µM | TGI (A498 renal): 5.95 µM | GI50 (MOLT-4 leukemia): 3.02 µM | TGI (MOLT-4 leukemia): 76 µM | GI50 (IGROV1 ovarian): 1.55 µM | TGI (IGROV1 ovarian): 4.77 µM | GI50 (NCI-H522 lung): 3.31 µM | TGI (NCI-H522 lung): 16.2 µM | GI50 (OVCAR-3 ovarian): 1.92 µM | TGI (OVCAR-3 ovarian): 5.47 µM | GI50 (SW-620 colon): 3.39 µM | TGI (SW-620 colon): 18.9 µM | GI50 (NCI/ADR-RES ovarian): 20.2 µM | TGI (NCI/ADR-RES ovarian): 81.4 µM | GI50 (SF-295 CNS): 2.64 µM | TGI (SF-295 CNS): 10.3 µM

Reference: PubChem BioAssay (NCI)
